Legend:
physchem = format: physicochemical
[1] = Intracerebral migration after administration via various paths; format: in vivo, mice
Source text: In this respect, the presently disclosed embodiment has a significant effect.

[2] = tested on: C57BL/6J mouse with chronic constriction injury (CCI) of sciatic nerve; assay: Pain behavior test (mechanical allodynia), chronic constriction injury (CCI) of sciatic nerve, von Frey hair; format: in vivo; conditions: once a day from 7th to 14th day after CCI operation, Gabapentin 30 mg/kg i.p.
Procedure: Chronic pain was caused by performing a chronic constriction injury (CCI) operation of sciatic nerve on a hind leg of a C57BL/6J mouse (8 week old, n=4 in each group). Threshold values of mechanical strength which indicated avoidance behavior were recorded by pressing a von Frey hair against the foot pad of the mouse's hind leg (from the previous day of the CCI operation to the 14th day after the operation).
Regarding drugs, the below drugs were administered once a day from the 7th day to the 14th day after the operation, and the therapeutic effects were studied. In this example, “Compound No. 37” is a compound represented by the above formula (2).
Control: the same volume of physiological saline
Gabapentin: 30 mg/kg, intraperitoneal administration
Compound No. 37: 100 mg/kg, subcutaneous administration
Compound No. 37: 20 mg/kg, subcutaneous administration
Compound No. 37: 20 mg/kg, intraperitoneal administration

[3] = tested on: glutamate concentration in cerebrospinal fluid; assay: Cerebrospinal fluid glutamate concentration determination (HPLC); format: in vivo, mouse; conditions: 14th day after CCI operation, compared with Gabapentin group
Procedure: On the 14th day after the CCI operation, cerebrospinal fluid were collected from the foramen magnum of the above-mentioned mice, and the glutamate concentration was measured quantitatively with HPLC.

LD50 test = conditions: in vivo; read-out: LD50 (lethal dose 50%)
Source text: LD50 (lethal dose 50%) of the glycyrrhetinic acid derivative (the compound of the above formula (2)) of the disclosed embodiment and LD50 of carbenoxolone were compared.

[4] = tested on: human superoxide dismutase 1 (SOD1) G93A mutant transgenic mice; assay: Survival extension effect in ALS acute-onset model mice (Kaplan-Meier); format: in vivo, mouse; conditions: 20 mg/kg intraperitoneal three times a week from 7-8 weeks of age; p<0.05
Procedure: The assessment of drug efficacy was conducted using, as an animal model of neurodegenerative diseases, the human superoxide dismutase 1 (SOD1) G93A mutant transgenic mice, which are widely used as an acute-onset model of amyotrophic lateral sclerosis (ALS).
Starting at 7-8 weeks of age, which is considered to be an early ALS onset period, the mice were intraperitoneally administered with 20 mg/kg body weight of the glycyrrhetinic acid derivative of the disclosed embodiment (Compound No. 37 group) or the same volume of physiological saline (saline group) three times a week.
The survival analysis was performed using the Kaplan-Meier method.

[5] = tested on: human amyloid β1-42 peptide (Aβ) intraventricularly injected mice; assay: Fear conditioned learning test in Alzheimer's disease model mice; format: in vivo, mouse; conditions: 20 mg/kg intraperitoneal three times a week; Aβ 300 pmol/3 μl intraventricular; vs physiological saline group; p<0.05
Procedure: The assessment of drug efficacy of the glycyrrhetinic acid derivative of the disclosed embodiment (Compound No. 37 group) was conducted using, as an animal model of neurodegenerative diseases, the human amyloid β1-42 peptide (Aβ) intraventricularly injected mice (Doi et al., Am J Pathol. 175 (5): 2121-32, 2009), which are widely used as an Alzheimer's disease model.
The mice were intraventricularly injected with 300 pmol/3 μl of Aβ, and from the day of the injection, they were intraperitoneally administered with 20 mg/kg body weight of the glycyrrhetinic acid derivative (Compound No. 37 group) of the disclosed embodiment or the same volume of physiological saline (vehicle group) three times a week. For control group was used wild type mouse (G57BL/6J) of the same age. Behavioral analysis was performed using the following fear conditioned learning test.
Associative learning was assessed using a fear conditioned learning test (Mouri et al., FASEB J. 21, 2135-2148, 2007; Nagai et al., FASEB J. 17, 50-52, and 2003). The mice were placed in a transparent acrylic cage with a stainless steel grid installed therein and were subjected to a 20 second tone stimulus (80 dB) and to an electric stimulus (0.6 mA) in the last 5 seconds. A set of this combination stimulus was repeated 4 times with 15 second intervals, thereby causing fear conditioning. […]

| Compound | logD (physchem) | delivery into brain ([1]; injected hypodermically, model mice) | delivery into brain ([1]; intraarterial injection) | reaching central nervous system and medicinal effect ([1]; intraperitoneal injection, model mice) | delivery into brain ([1]; intravenous injection) | pain threshold value compared to Gabapentin group ([2]; 20 mg/kg intraperitoneal) | pain threshold value compared to Gabapentin group ([2]; 100 mg/kg subcutaneous) | glutamate concentration in the cerebrospinal fluid ([3]; 20 mg/kg intraperitoneal) | glutamate concentration in the cerebrospinal fluid ([3]; 20 mg/kg subcutaneous) | glutamate concentration in the cerebrospinal fluid ([3]; 100 mg/kg subcutaneous) | LD50 (LD50 test) [mg/kg] | extension of survival on average vs saline group [4] | freezing behavior time in the contextual dependency test (memory disorder improvement) [5] |
| --- | --- | --- | --- | --- | --- | --- | --- | --- | --- | --- | --- | --- | --- |
| C[n+]1cccc(C(=O)N[C@H]2CC[C@]3(C)[C@H]4C(=O)C=C5[C@@H]6C[C@@](C)(C(=O)O)CC[C@]6(C)CC[C@@]5(C)[C@]4(C)CC[C@H]3C2(C)C)c1 [Compound No. 37] | 2.94 | is delivered into brain | delivered into brain | reach a central nervous system and exert a medicinal effect | delivered into brain | significant increases of pain threshold values | significant increases of pain threshold values | a decrease of the glutamate concentration in the cerebrospinal fluid, which was equal to or more than that shown in Gabapentin group | a decrease of the glutamate concentration in the cerebrospinal fluid, which was equal to or more than that shown in Gabapentin group | a decrease of the glutamate concentration in the cerebrospinal fluid, which was equal to or more than that shown in Gabapentin group | > 5000 | about 17 days | significantly moderated the observed reduction in freezing behavior time |
| CC1(C)[C@@H](OC(=O)CCC(=O)O)CC[C@]2(C)[C@H]3C(=O)C=C4[C@@H]5C[C@@](C)(C(=O)O)CC[C@]5(C)CC[C@@]4(C)[C@]3(C)CC[C@@H]12 [carbenoxolone, reference compound] |  |  |  |  |  |  |  |  |  |  | 100 |  |  |

— patent publication US9796751B2, “Glycyrrhetinic acid derivative and use thereof” (INI CORPORATION, priority 2013, dated 2017)
